PMC10090446, “Population pharmacokinetic analysis and dosing optimization of polymyxin B in critically ill patients” (Frontiers in Pharmacology, 2023)
Where two headings read alike, the source gives them in different places. Positions of bridges follow the written chain, without caps; N, C: chain ends. Non-standard residues stand in square brackets, D forms with d. Residues, ends and D or L forms follow the SMILES beside them. *: point of attachment. X1 = CC[C@H](C)CCCCC(=O)*; Dab = NCC[C@H](N)C(=O)O

What was measured:
[1] = Population pharmacokinetic (PPK) model, non-parametric adaptive grid (Pmetrics), critically ill patients; format: in vivo, human; conditions: for clearance: human
Text: We gather data from critically ill patients (≥18 years old) who were given intravenous drip polymyxin B treatment with blood concentration monitoring at the hospital from November 2021 to September 2022. The attending physician decided to administer polymyxin B. At the same time, patients who received continuous renal replacement therapy (CRRT) (n = 10) or extracorporeal membrane oxygenation (ECMO) (n = 2) at the time of blood collection were excluded. Patients’ information, including gender, age, WT, serum creatinine (Scr), CCR, ALB, APACHE-II, infection diagnosis, and pathogenic bacteria, were obtained from the electronic system for medical records. CCR was generated by adopting the Cockcroft—Gault equation with WT and age ([Cucci et al., 2022]). The Ethical Committees of the Second Affiliated Hospital of the South China University of Technology authorized the study (K-2022-020-01).
Patients were treated with polymyxin B, and plasma samples were collected ≥ 48 h after the treatment. Each patient contributed clinical samples, of which 37.5% (n = 24) were sampled with troughs (within 1 h before administration), 35.9% (n = 23) were sampled with peaks (within 1 h after the end of the infusion), and 26.6% (n = 17) were sampled at 6-8 h after the infusion. The dosing regimens of polymyxin B were a loading dose of 100 mg–150 mg and a maintenance dose of 50 mg–75 mg q12h, and the infusion duration was about 1–2 h. In preparation for analysis, samples were centrifuged for 10 min at 3000 r min^-1 after collection, and the upper plasma after centrifugation was stored at −20°C.
According to previous studies, total polymyxin B1, polymyxin B2, and polymyxin B1-Ile concentrations in human blood plasma were quantified using LC-MS/MS ([Meng et al., 2016]; [Hee et al., 2017]). The standard used in our experiments was the USP standard with the batch number of R104F0. The chromatographic column was the Kinetex C18 (3 μm × 2.1 mm×100 mm. Phenomenex). A: B mobile phase was 0.1% formic acid to acetonitrile. With changes in the linear velocity ratio, gradient elution was as follows: 15% −15% B, 0–2.0 min; 15%–10% B, 2.01–4.0 min; 10%–30% B, 4.01–5.0 min; 15% B, 5.01 min; and 15%–15% B, 5.02–10 min. The flow rate was constrained to 0.8 mL min^-1, and the column temperature was set to 40°C. The parent/daughter ion mass ratios used in the mass spectrometry were m/z 602.6/241.2 (polymyxin B1 and B1-Ile) and m/z 595.6/202.1 (polymyxin B2). Plasma samples (100 μL) were collected from centrifuged blood samples, mixed with 500 μL precipitant (acetonitrile with 6.67% formic acid) and vortexed well for 1 min. The lower limit of quantification (LLOQ) of the bioanalytical method used for quantifying polymyxin B1, B2, and B1-Ile concentrations was 0.19, 0.02 and 0.02 mg L^-1, respectively. The linear relationships of polymyxin B1, B2, and B1-Ile concentrations in the range of 0.19–24.13 mg L^-1, 0.02–2.7 mg L^-1 and 0.02–2.38 mg L^-1 were considered good (R^2 = 0.99677, R^2 = 0.99656, R^2 = 0.99484) and the accuracy was within 95.3%–105.3%, 92.2%–104.8%, and 95.8%–105.4%. […] Finally, 200 μL of the supernatant from the centrifugation of the combination at 14,000 r min^-1 for 10 min was employed to measure the amounts of polymyxin B.
In order to analyze the total concentrations of polymyxin B, Pmetrics version 1.9.7 (Laboratory of Applied Pharmacokinetics and Bioinformatics, Los Angeles, CA) was used by R version 4.1.3 ([Neely et al., 2012]). PK parameters were evaluated by a one-compartment model and a two-compartment model. The multiplicative error model (SD ×gamma), which requires the observation concentration values to be weighted by the reciprocal of the error, was used to calculate the error structure model. Gamma is the process noise that results from incorrectly specified sampling time, dosage, etc. […]

[2] = used to convert fAUC/MIC target; ref Sandri et al., 2013; cited from earlier work
Experimental: Combined with population PK/PD feature parameters of antibiotics medicines, the PTA of PK/PD target for a dosing regimen at a predetermined minimum inhibitory concentration (MIC) was performed by Monte Carlo simulation. According to the 2019 International Consensus Guidelines ([Tsuji et al., 2019]), the target of fAUC/MIC for polymyxins was around 20, and the unbound fraction was determined to be 0.42 ([Sandri et al., 2013]). Thus AUC/MIC ≥ 50 was set as the efficacy target, as well as the MIC range was set at 0.25–4 mg L^-1 ([Satlin et al., 2020]). Additionally, considering the nephrotoxicity ...

[3] = data splitting, 20% of the data
[4] = data splitting, 80% of the data
[5] = final model 6, bootstrap, median
[6] = final model 6, full data set, 22 critically ill patients, iv, mean
[7] = final model 6, full data set, median

CC[C@H](C)CCCCC(=O)N[C@@H](CCN)C(=O)N[C@H](C(=O)N[C@@H](CCN)C(=O)N[C@H]1CCNC(=O)[C@H]([C@@H](C)O)NC(=O)[C@H](CCN)NC(=O)[C@H](CCN)NC(=O)[C@H](CC(C)C)NC(=O)[C@@H](Cc2ccccc2)NC(=O)[C@H](CCN)NC1=O)[C@@H](C)O [polymyxin B] (X1-[Dab]T[Dab][Dab][Dab][dF]L[Dab][Dab]T; lactam 4-C)
Q, mean value [1, 3]: 2.56 L/h | Vc, mean value [1, 3]: 13.58 L | Vp, mean value [1, 3]: 64.60 L | Q, mean value [1, 4]: 3.44 L/h | Vc, mean value [1, 4]: 17.82 L | Vp, mean value [1, 4]: 40.26 L | CL, bootstrap median [1, 5]: 1.22 L/h | Q, bootstrap median [1, 5]: 2.31 L/h | Vc, bootstrap median [1, 5]: 17.15 L | Vp, bootstrap median [1, 5]: 66.34 L | Q, mean [1, 6]: 3.04 L/h | Vc, mean [1, 6]: 16.64 ± 12.74 L | Vp, mean [1, 6]: 66.20 L | Q, median [1, 7]: 2.34 L/h | Vc, median [1, 7]: 13.52 L | Vp, median [1, 7]: 76.53 L | clearance ([1]; plasma, iv, data splitting, 20% of the data, read-out: CL, mean value (converted)): 21.8 mL/min | clearance ([1]; plasma, iv, data splitting, 80% of the data, read-out: CL, mean value (converted)): 22.5 mL/min | clearance ([1]; plasma, iv, final model 6, full data set, 22 critically ill patients, iv, median, read-out: CL, median (converted)): 20.3 mL/min | clearance ([1]; final model 6 (two-compartment, covariates age and ALB), full data set, 22 critically ill patients, 64 samples, iv infusion, steady state, total plasma concentration, LC-MS/MS, NPAG, mean, read-out: CL, mean (converted)): 20.7 mL/min | unbound fraction [2]: 0.42
